Read-outs that look alike come from different tables or passages of the source.
Assays:
[1] = target: T1, recombinant human LTA4 hydrolase (Homo sapiens, UniProt P09960); test: Recombinant Human LTA4 Hydrolase Assay for LTA4 Hydrolase Inhibitor Activity (LTB4 by enzyme-linked immunoassay); type: biochemical; conditions: for IC50: read-out: Recombinant Human LTA4 Hydrolase Assay IC50 LTA4H
T1 construct: made in house; host or cells: Spodoptera frugiperda Sf-9 cells, baculovirus (AcNPV) expression vector
T1 sequence (P09960 1-611): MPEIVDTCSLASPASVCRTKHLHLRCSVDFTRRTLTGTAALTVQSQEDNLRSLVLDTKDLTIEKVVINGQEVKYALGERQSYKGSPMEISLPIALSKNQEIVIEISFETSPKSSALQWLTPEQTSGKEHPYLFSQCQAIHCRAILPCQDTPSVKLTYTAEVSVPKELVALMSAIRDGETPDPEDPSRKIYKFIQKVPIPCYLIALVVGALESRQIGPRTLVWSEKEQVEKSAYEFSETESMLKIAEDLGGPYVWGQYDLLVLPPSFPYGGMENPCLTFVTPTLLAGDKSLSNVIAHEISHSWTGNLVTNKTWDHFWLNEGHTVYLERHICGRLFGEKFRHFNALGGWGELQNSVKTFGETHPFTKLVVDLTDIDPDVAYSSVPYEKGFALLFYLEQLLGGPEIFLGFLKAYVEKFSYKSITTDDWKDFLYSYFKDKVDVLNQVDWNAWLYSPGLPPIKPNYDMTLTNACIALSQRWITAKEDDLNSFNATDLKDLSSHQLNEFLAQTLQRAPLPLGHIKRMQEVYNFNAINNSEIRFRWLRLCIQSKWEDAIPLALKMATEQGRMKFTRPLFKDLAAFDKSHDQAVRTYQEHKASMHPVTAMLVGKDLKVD
Experimental: Compounds of the present invention were tested for LTA4 hydrolase inhibitor activity against recombinant human LTA4 hydrolase (rhLTA4 H). […] Briefly, LTA4 hydrolase encoding DNA was amplified by polymerase chain reaction using a pair of oligonucleotide primers based on the nucleotide sequence from the 5'-end, and the complement of the 3'-end, of the coding region of the LTA4 hydrolase gene, the nucleotide sequence of which gene is known. […] A λgtll human placental cDNA library (Clonetech, Palo Alto, Calif.) provided the nucleic acid template.
One or more predetermined amounts of a compound of the invention were incubated in assay buffer (0.1M potassium phosphate, 5 mg/ml fatty acid free BSA, 10% DMSO, pH 7.4) for 10 minutes at room temperature with 250 ng of recombinant hLT4 H to allow binding, if any, between the enzyme and inhibitor. The stock enzyme solution was 1 mg/ml LTA4 hydrolase, 50 mM Tris, pH 8.0, 150 mM NaCl, 2.5 mM beta-mercaptoethanol, 50% glycerol. […] LTA4 (i.e., substrate) was prepared from the methyl ester of LTA4 (Biomol, Inc., Plymouth Meeting, Pa.) by treating the methyl ester with 30 molar equivalents of LiOH at room temperature for 18 hours. The LTA4 substrate in its free acid form was kept frozen at -80° C. until needed. […] Each reaction was carried out at room temperature for 10 minutes. The reaction was stopped by diluting 25 μl of the reaction mixture with 500 μl of the assay buffer without DMSO. LTB4 was quantified in the diluted sample by a commercially available enzyme-linked immunoassay [Caymen Chemical Co., Ann Arbor, Mich.] using the method recommended in the manufacturer's instructions and compared to the amount of LTB4 produced in a negative control (i.e., essentially identical conditions except without addition of an inhibitor compound). The IC50 was routinely calculated from the data produced.

[2] = tested on: LTB4 production in human blood; test: Inhibition of Calcium Ionophore-Induced LTB4 Production in Human Blood (HWB); type: cell-based; conditions: Homo sapiens, read-out: Inhibition of Calcium Ionophore-Induced LTB4 Production in Human Blood IC50 HWB
Experimental: One or more concentrations of the leukotriene A4 hydrolass inhibitor compounds being tested were prepared (diluted in DMSO) and 2 μl added and gently mixed with the diluted whole blood. After incubating for 15 minutes at 37° C. in a humidified incubator, calcium ionophore A23187 (Sigma Chemical Co., St. Louis, Mo.) was added to a final concentration of 20 mcg/ml and the incubation continued under the same conditions for an additional 10 minutes to allow LTB4 formation. The reaction was terminated by centrifugation (833 g, 10 minutes at 4° C.) and supernatant were analyzed for LTB4 and thromboxane by commercially available enzyme-linked immunoassays (Caymen Chemical Co., Ann Arbor, Mich.) according to the manufacturer's instructions. The IC50 of each test compound was determined from the amount of inhibition of LTB4 production as compared to an essentially identical assay in which no inhibitor compound was present.

[3] = human whole blood, A23187 20 mcg/ml

SMILES | IC50 [1] | IC50 [2, 3] | other results
N#CC1CCN(CCOc2ccc(Cc3ccccc3)cc2)CC1 [Example 279] | 470 nM | – | –
c1ccc(Cc2ccc3c(c2)CC(Cn2nc4ccncc4n2)O3)cc1 (centres unmarked) [Example 361A] | – | – | inhibition at 100 µM [1]: 24%
NC(=O)C1CCCN(CCCOc2ccc(Oc3ccccc3)cc2)C1 (centres unmarked) [Example 250] | 4900 nM | 1770 nM | –
COc1cccc(Cc2ccc(OCCN3CCCC3)cc2)c1 [Example 127] | 840 nM | 2480 nM | –
NC1CCN(CCOc2ccc(Cc3ccccc3)cc2)C1 (centres unmarked) [Example 452] | 20 nM | 290 nM | –
Clc1cc(Cc2ccccc2)ccc1OCCN1CCCC1 [Example 113] | 1230 nM | 2010 nM | –
CC(C)(C)OC(=O)CCNCCCOc1ccc(Cc2ccccc2)cc1 [Example 268] | – | 7980 nM | inhibition at 3 µM [1]: 53%
CCOC(=O)C1CCN(CCOc2ccc(Cc3cccnc3)cc2)CC1 [Example 311] | – | – | inhibition at 100 µM [1]: 44%
O=C(COc1ccc(Cc2ccccc2)cc1)N1CCCCC1 [Example 387, 1-(1-piperidinyl)-2-[4-(phenylmethyl)phenoxy]ethanone] | 37 nM | 120 nM | –
O=C(CNCCOc1ccc(Cc2ccccc2)cc1)OCc1ccccc1 [Example 319] | – | – | inhibition at 100 µM [1]: 47%
NC(=O)NC1CCN(CCOc2ccc(Cc3ccccc3)cc2)C1 (centres unmarked) [Example 453] | 81 nM | 350 nM | –
O=C1CC2CCCC(C1)N2CCOc1ccc(Cc2ccccc2)cc1 [Example 303] | 97 nM | – | IC50 [2]: 1650 nM
O=C(O)CCNCCCOc1ccc(Cc2ccccc2)cc1 [Example 431] | 140 nM | 280 nM | –
c1ccc(Cc2cnc(OCCN3CCCC3)s2)cc1 [Example 76] | 2900 nM | 3500 nM | –
c1ccc(Oc2ccc(OCCCn3cnc4ccccc43)cc2)cc1 [Example 343] | – | – | inhibition at 3 µM [1]: 40%
NC(=O)NC1CCN(CCOc2ccc(Cc3ccccc3)cc2)CC1 [Example 456] | 87 nM | 440 nM | –
CCOC(=O)CNCCCOc1ccc(Cc2ccccc2)cc1 [Example 264] | 3000 nM | 1100 nM | –
COc1ccc(Cc2ccc(OCCN3CCCC3)cc2)cc1 [Example 128] | 70 nM | 890 nM | –
c1ccc(Cc2ccc(OCCN3CCCCC3)cc2)cc1 [Example 401] | 55 nM | – | –
Nc1ccc2ncn(CCOc3ccc(Cc4ccccc4)cc3)c2c1 [Example 362B] | 1320 nM | 4580 nM | –
Clc1cccc(Cl)c1COc1ccc(OCCN2CCCC2)cc1 [Example 204] | – | – | inhibition at 25 µM [1]: 49%

SMILES | IC50 [1] | IC50 [2, 3] | other results
c1ccc(Cc2ccc(SCCN3CCCC3)cc2)cc1 [Example 68] | 480 nM | – | –
CCOC(=O)C1CCN(CCOc2ccc(Cc3ccc(F)cc3)cc2)CC1 [Example 312] | – | – | inhibition at 100 µM [1]: 46%
O=C(O)c1ccc(-c2ccc(OCCN3CCCC3)cc2)cc1 [Example 63] | – | – | inhibition at 25 µM [1]: 40%
c1cc(Cc2ccc(OCCN3CCCC3)cc2)ccn1 [Example 126] | 630 nM | – | –
c1ccc(Cc2ccc3c(c2)CC(Cn2nnc4cccnc42)O3)cc1 (centres unmarked) [Example 360A] | – | – | inhibition at 100 µM [1]: 36%
NC(=O)C1CCCN(CCCOc2ccc(Cc3ccccc3)cc2)C1 (centres unmarked) [Example 244] | – | – | inhibition at 100 µM [1]: 15%
NC(=O)C1CCN(CCCOc2ccc(Cc3ccccc3)cc2)CC1 [Example 226, 1-[3-[4-(phenylmethyl)phenoxy]propyl]-4-piperidinecarboxamide] | – | – | inhibition at 100 µM [1]: 4%
CC(C)(C)OC(=O)C1CCCN1CCCOc1ccc(Cc2ccccc2)cc1 (centres unmarked) [Example 260] | – | – | inhibition at 3 µM [1]: 14%
C#CC(CC(=O)OCC)NCCOc1ccc(Cc2ccccc2)cc1 (centres unmarked) [Example 408] | – | – | inhibition at 100 µM [1]: 76%
CC1(CN2CCC(C(N)=O)CC2)Cc2cc(Cc3ccccc3)ccc2O1 (centres unmarked) [Example 286] | – | – | inhibition at 100 µM [1]: 41%
O=C(O)c1ccc(Oc2ccc(OCCN3CCCC3)cc2)cc1 [Example 64] | – | – | inhibition at 25 µM [1]: 52%
Cc1nc(COc2ccc(OCCN3CCCC3)cc2)cs1 [Example 202] | – | – | inhibition at 3 µM [1]: 44%
Fc1ccc(Oc2ccc(OCCn3cnc4cccnc43)cc2)cc1 [Example 354A] | – | – | inhibition at 3 µM [1]: 51%
O=C(OCc1ccccc1)[C@@H]1CCCN1CCCOc1ccc(Cc2ccccc2)cc1 [Example 228, Phenylmethyl 1-[3-[4-(phenylmethyl)phenoxy]propyl]-L-prolinate] | – | – | inhibition at 3 µM [1]: 28%
c1ccc(COc2ccc(OCCn3cnc4ccccc43)cc2)cc1 [Example 345] | – | – | inhibition at 3 µM [1]: 35%
Cc1ccccc1COc1ccc(OCCN2CCCC2)cc1 [Example 210] | – | – | inhibition at 25 µM [1]: 4%
c1cc(Cc2ccc(OCCN3CCCC3)cc2)co1 [Example 136] | 77 nM | – | –
c1ccc(Cc2ccc3c(c2)CC(Cn2nc4cccnc4n2)O3)cc1 (centres unmarked) [Example 360B] | – | – | inhibition at 100 µM [1]: 19%
c1ccc(COc2ccc(OCCn3cnc4ccncc43)cc2)cc1 [Example 347A] | – | 7050 nM | –
c1ccc(Oc2ccc(OCCCn3cccc4ncnc3-4)cc2)cc1 [Example 350C] | – | 1670 nM | –
NC(=O)CCNCCCOc1ccc(Cc2ccccc2)cc1 [Example 423] | – | 700 nM | –

SMILES | IC50 [1] | IC50 [2, 3] | other results
c1ccc(COc2ccc(OCCn3cccc4ncnc3-4)cc2)cc1 [Example 346C] | – | 6690 nM | –
Fc1ccc(Oc2ccc(OCCn3cnc4cnccc43)cc2)cc1 [Example 355B] | – | 910 nM | –
NC(=O)C1CCN(CC2Cc3cc(Cc4ccccc4)cnc3O2)CC1 (centres unmarked) [Example 288] | – | 960 nM | –
COc1ccc(Cc2ccc(OCCN3CCCC3)cc2)cc1F [Example 144] | – | 900 nM | –
c1ccc(COc2ccc(OCCn3cnc4cccnc43)cc2)cc1 [Example 346A] | – | – | inhibition at 3 µM [1]: 31%
c1coc(Cc2ccc(OCCN3CCCC3)cc2)c1 [Example 135] | 47 nM | – | –
COC(=O)C1CN(CCCOc2ccc(Cc3ccccc3)cc2)CCC1=O (centres unmarked) [Example 262] | – | 2480 nM | –
CCOC(=O)C1CCN(CCOc2ccc(Oc3ccccc3)cc2)CC1 [Example 254] | – | 1260 nM | –
NC(=O)C1CCN(CC2CCc3cc(Cc4ccccc4)ccc3O2)CC1 (centres unmarked) [Example 293] | – | 3200 nM | –
CCOC(=O)CCN(CCCOc1ccc(Cc2ccccc2)cc1)Cc1cccnc1 [Example 414] | – | 830 nM | –
CC(=O)N1CCN(CC2Cc3cc(Cc4ccccc4)ccc3O2)CC1 (centres unmarked) [Example 294] | – | 340 nM | –
c1ccc(Cc2ccc(OCCn3ccc4ncccc43)cc2)cc1 [Example 342] | – | 2120 nM | –
Clc1cc(OCCN2CCCC2)ccc1Cc1ccccc1 [Example 114] | – | 16000 nM | –
NC(=O)C1CCN(CCOc2ccc(Oc3ccccc3)cc2)CC1 [Example 252] | – | 127 nM | –
c1ccc(Cc2ccc3c(c2)CC(CN2CCCC2)O3)cc1 (centres unmarked) [Example 280] | – | 21 nM | –
c1ccc(Oc2ccc(OCCn3cnc4cccnc43)cc2)cc1 [Example 348A] | – | 5700 nM | –
NC(=O)C1CCCN(CCOc2ccc(Oc3ccccc3)cc2)C1 (centres unmarked) [Example 253] | – | 490 nM | –
Fc1ccc(Oc2ccc(OCCN3CCCC3)cc2)cc1 [Example 48] | – | 390 nM | –
c1ccc(Oc2ccc(OCCCn3ccc4ncnc-4c3)cc2)cc1 [Example 351C] | – | 360 nM | –
NC(=O)C1CCN(CCOc2ccc(Cc3ccccc3)cc2)CC1 [Example 239] | 9000 nM | – | –
c1ccc(Cc2ccc(OCCNC3CCCC3)cc2)cc1 [Example 241] | – | 630 nM | –

— patent publication US5585492A, “LTA4 Hydrolase inhibitors” (priority 1994, dated 1996)
